Experimental data: PubChem BioAssay (NCI)
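In this assay, cells in 96-well plates receive the compound at five concentrations for 48 hours. Endpoints are linearly interpolated between the surrounding concentrations. GI50 marks 50% less growth. TGI denotes the concentration required for complete inhibition of growth.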

Assays:
Experiment in all cases: DTP human tumour cell line panel, 48 h
SNB-19 CNS = tested on: SNB-19 CNS
CAKI-1 renal = tested on: CAKI-1 renal
HT29 colon = tested on: HT29 colon
UACC-257 melanoma = tested on: UACC-257 melanoma
SR leukemia = tested on: SR leukemia
CCRF-CEM leukemia = tested on: CCRF-CEM leukemia
SNB-75 CNS = tested on: SNB-75 CNS
UACC-62 melanoma = tested on: UACC-62 melanoma
HOP-62 NSCLC = tested on: HOP-62 NSCLC
HCC-2998 colon = tested on: HCC-2998 colon
NCI-H23 lung = tested on: NCI-H23 lung
HCT-15 colon = tested on: HCT-15 colon
U251 CNS = tested on: U251 CNS
ACHN renal = tested on: ACHN renal
MDA-MB-435 = tested on: MDA-MB-435
BT-549 breast = tested on: BT-549 breast
MALME-3M melanoma = tested on: MALME-3M melanoma
HCT-116 colon = tested on: HCT-116 colon
TK-10 renal = tested on: TK-10 renal
M14 melanoma = tested on: M14 melanoma
HOP-92 NSCLC = tested on: HOP-92 NSCLC
SF-295 CNS = tested on: SF-295 CNS
IGROV1 ovarian = tested on: IGROV1 ovarian
OVCAR-3 ovarian = tested on: OVCAR-3 ovarian
A498 renal = tested on: A498 renal
RXF 393 renal = tested on: RXF 393 renal
UO-31 renal = tested on: UO-31 renal
HL-60(TB) leukemia = tested on: HL-60(TB) leukemia
T-47D breast = tested on: T-47D breast
OVCAR-8 ovarian = tested on: OVCAR-8 ovarian
HS 578T breast = tested on: HS 578T breast
LOX IMVI melanoma = tested on: LOX IMVI melanoma
786-0 renal = tested on: 786-0 renal
NCI/ADR-RES ovarian = tested on: NCI/ADR-RES ovarian
DU-145 prostate = tested on: DU-145 prostate
SN12C renal = tested on: SN12C renal
MOLT-4 leukemia = tested on: MOLT-4 leukemia
PC-3 prostate = tested on: PC-3 prostate
MCF7 breast = tested on: MCF7 breast
OVCAR-4 ovarian = tested on: OVCAR-4 ovarian
NCI-H460 lung = tested on: NCI-H460 lung
KM12 colon = tested on: KM12 colon
COLO 205 colon = tested on: COLO 205 colon
SF-268 CNS = tested on: SF-268 CNS
SK-MEL-28 melanoma = tested on: SK-MEL-28 melanoma
RPMI-8226 leukemia = tested on: RPMI-8226 leukemia
OVCAR-5 ovarian = tested on: OVCAR-5 ovarian
A549 NSCLC = tested on: A549 NSCLC
SF-539 CNS = tested on: SF-539 CNS
SW-620 colon = tested on: SW-620 colon
NCI-H226 lung = tested on: NCI-H226 lung
MDA-MB-231 breast = tested on: MDA-MB-231 breast
SK-OV-3 ovarian = tested on: SK-OV-3 ovarian
SK-MEL-5 melanoma = tested on: SK-MEL-5 melanoma
EKVX NSCLC = tested on: EKVX NSCLC

O=C(CCc1nnc(-c2c(Cl)cccc2Cl)o1)c1nc2ccccc2[nH]1
GI50 (SNB-19 CNS): 17.4 µM | TGI (SNB-19 CNS): > 100 µM | GI50 (CAKI-1 renal): 3.49 µM | TGI (CAKI-1 renal): 41.1 µM | GI50 (HT29 colon): 3.77 µM | TGI (HT29 colon): 55.1 µM | GI50 (UACC-257 melanoma): 13.7 µM | TGI (UACC-257 melanoma): 44.4 µM | GI50 (SR leukemia): 2.63 µM | TGI (SR leukemia): 15.2 µM | GI50 (CCRF-CEM leukemia): 4.86 µM | TGI (CCRF-CEM leukemia): 66 µM | GI50 (SNB-75 CNS): 18.7 µM | TGI (SNB-75 CNS): > 100 µM | GI50 (UACC-62 melanoma): 3.34 µM | TGI (UACC-62 melanoma): 27.8 µM | GI50 (HOP-62 NSCLC): 7.67 µM | TGI (HOP-62 NSCLC): 41.3 µM | GI50 (HCC-2998 colon): 6.52 µM | TGI (HCC-2998 colon): 32.3 µM | GI50 (NCI-H23 lung): 3.23 µM | TGI (NCI-H23 lung): 63.2 µM | GI50 (HCT-15 colon): 5.13 µM | TGI (HCT-15 colon): 48.6 µM | GI50 (U251 CNS): 10.9 µM | TGI (U251 CNS): 77.6 µM | GI50 (ACHN renal): 11.9 µM | TGI (ACHN renal): > 100 µM | GI50 (MDA-MB-435): 2 µM | TGI (MDA-MB-435): 4.77 µM | GI50 (BT-549 breast): 7.54 µM | TGI (BT-549 breast): 92.4 µM | GI50 (MALME-3M melanoma): 13 µM | TGI (MALME-3M melanoma): 52.6 µM | GI50 (HCT-116 colon): 3.33 µM | TGI (HCT-116 colon): 13.5 µM | GI50 (TK-10 renal): 16.4 µM | TGI (TK-10 renal): > 100 µM | GI50 (M14 melanoma): 5.86 µM | TGI (M14 melanoma): 31.5 µM | GI50 (HOP-92 NSCLC): 1.77 µM | TGI (HOP-92 NSCLC): 15.8 µM | GI50 (SF-295 CNS): 5.98 µM | TGI (SF-295 CNS): 42.9 µM | GI50 (IGROV1 ovarian): 5.26 µM | TGI (IGROV1 ovarian): 39.1 µM | GI50 (OVCAR-3 ovarian): 5.63 µM | TGI (OVCAR-3 ovarian): 24.8 µM | GI50 (A498 renal): 1.53 µM | TGI (A498 renal): 10.1 µM | GI50 (RXF 393 renal): 4.3 µM | TGI (RXF 393 renal): 49.7 µM | GI50 (UO-31 renal): 6.71 µM | TGI (UO-31 renal): 32.9 µM | GI50 (HL-60(TB) leukemia): 2.23 µM | TGI (HL-60(TB) leukemia): 19.3 µM | GI50 (T-47D breast): 3.34 µM | TGI (T-47D breast): 60 µM | GI50 (OVCAR-8 ovarian): 9.26 µM | TGI (OVCAR-8 ovarian): > 100 µM | GI50 (HS 578T breast): 9.71 µM | TGI (HS 578T breast): 93.9 µM | GI50 (LOX IMVI melanoma): 4.03 µM | TGI (LOX IMVI melanoma): 39.8 µM | GI50 (786-0 renal): 10.7 µM | TGI (786-0 renal): 45.5 µM | GI50 (NCI/ADR-RES ovarian): 5.47 µM | TGI (NCI/ADR-RES ovarian): > 100 µM | GI50 (DU-145 prostate): 17.8 µM | TGI (DU-145 prostate): > 100 µM | GI50 (SN12C renal): 6.22 µM | TGI (SN12C renal): 56.9 µM | GI50 (MOLT-4 leukemia): 4.07 µM | TGI (MOLT-4 leukemia): 25.8 µM | GI50 (PC-3 prostate): 3.71 µM | TGI (PC-3 prostate): > 100 µM | GI50 (MCF7 breast): 4.57 µM | TGI (MCF7 breast): > 100 µM | GI50 (OVCAR-4 ovarian): 5.93 µM | TGI (OVCAR-4 ovarian): > 100 µM | GI50 (NCI-H460 lung): 4.99 µM | TGI (NCI-H460 lung): 28.6 µM | GI50 (KM12 colon): 3.16 µM | TGI (KM12 colon): 11 µM | GI50 (COLO 205 colon): 2.66 µM | TGI (COLO 205 colon): 7.08 µM | GI50 (SF-268 CNS): 7.29 µM | TGI (SF-268 CNS): 46.6 µM | GI50 (SK-MEL-28 melanoma): 12.7 µM | TGI (SK-MEL-28 melanoma): 42.7 µM | GI50 (RPMI-8226 leukemia): 3.61 µM | TGI (RPMI-8226 leukemia): 23.3 µM | GI50 (OVCAR-5 ovarian): 7.82 µM | TGI (OVCAR-5 ovarian): > 100 µM | GI50 (A549 NSCLC): 10.4 µM | TGI (A549 NSCLC): > 100 µM | GI50 (SF-539 CNS): 10.5 µM | TGI (SF-539 CNS): 39.6 µM | GI50 (SW-620 colon): 3.46 µM | TGI (SW-620 colon): 16.3 µM | GI50 (NCI-H226 lung): 6.66 µM | TGI (NCI-H226 lung): 31.2 µM | GI50 (MDA-MB-231 breast): 2.68 µM | TGI (MDA-MB-231 breast): 42.6 µM | GI50 (SK-OV-3 ovarian): 4.6 µM | TGI (SK-OV-3 ovarian): 30.5 µM | GI50 (SK-MEL-5 melanoma): 2.88 µM | TGI (SK-MEL-5 melanoma): 14.9 µM | GI50 (EKVX NSCLC): 5.48 µM | TGI (EKVX NSCLC): > 100 µM
